Results taken from paper PMC12040169 (PLOS Biology, 2025).

Assay: in vitro
Details: human, hela cells, % viability

Compound	viability at 28.5 h, 10 µM [%]
CC1(C)CC(=O)c2sc(NC(=O)c3ccc4ncccc4c3)nc2C1 [CBK144105]	92.2
CC1CCN(Cc2ccc(-c3nnn(CC(=O)NCc4ccc(S(N)(=O)=O)cc4)n3)cc2)CC1 [CBK144141C]	93.3
COc1cccc(CNC(=O)Cn2nnc(-c3ccc(CN4CCC(C)CC4)cc3)n2)c1OC [CBK144161C]	94.1
COc1cc(CNC(=O)Cn2nnc(-c3ccc(CN4CCC(C)CC4)cc3)n2)cc(OC)c1OC [CBK144170C]	96.5
CC1CCN(Cc2ccc(-c3nnn(CC(=O)NCc4ccc(Cl)cc4Cl)n3)cc2)CC1 [CBK144180C]	96.5
O=C(c1ccco1)N1CCN(C(=O)C(c2ccccc2)c2ccccc2)CC1 [CBK144462]	88.9
COc1ccccc1OCC(=O)N1CCN(C(=O)c2ccco2)CC1 [CBK144466]	86.8
O=C(c1cc[nH]c1)N1CCN(C(=O)c2ccco2)CC1 [CBK144467]	90
Cc1ccc(S(=O)(=O)CC(=O)N2CCN(C(=O)c3ccco3)CC2)cc1 [CBK144469]	87.1
COc1cc(C(=O)N2CCN(C(=O)c3ccco3)CC2)cc(OC)c1OC [CBK144476]	113
O=C(c1cncnc1)N1CCN(C(=O)c2ccco2)CC1 [CBK144477]	104
O=C(CN1CCOCC1)N1CCN(C(=O)c2ccco2)CC1 [CBK144478]	99.2
O=C(c1ccco1)N1CCN(C(=O)c2c(F)cccc2F)CC1 [CBK144479]	86.3
O=C(c1ccc2c(c1)OCCO2)N1CCN(C(=O)c2ccco2)CC1 [CBK144480]	101
O=C(COc1cccnc1)N1CCN(C(=O)c2ccco2)CC1 [CBK144482]	96.7
N#Cc1cccc(C(=O)N2CCN(c3ncccn3)CC2)c1 [CBK144498]	82.2
O=C(COc1ccc(F)cc1)N1CCN(c2ncccn2)CC1 [CBK144499]	94.1
O=C(c1ccc2ncccc2c1)N1CCN(c2ncccn2)CC1 [CBK144503]	87.9
O=C(C(c1ccccc1)c1ccccc1)N1CCN(c2ncccn2)CC1 [CBK144504]	89.4
O=C(c1cscn1)N1CCN(c2ncccn2)CC1 [CBK144506]	87.9
CSCCC(=O)N1CCN(c2ncccn2)CC1 [CBK144509]	90.3
CN1CCC(C(=O)N2CCN(c3ncccn3)CC2)CC1 [CBK144511]	102
O=C(c1cncnc1)N1CCN(c2ncccn2)CC1 [CBK144515]	88

Compound	viability at 28.5 h, 10 µM [%]
O=C(c1cccnc1)N1CCN(c2ncccn2)CC1 [CBK144516]	95.4
O=C(c1c(F)cccc1F)N1CCN(c2ncccn2)CC1 [CBK144517]	89.3
O=C(c1ccc2c(c1)OCCO2)N1CCN(c2ncccn2)CC1 [CBK144519]	89.5
O=C(COc1cccnc1)N1CCN(c2ncccn2)CC1 [CBK144521]	86.5
O=C(Cc1c[nH]cn1)N1CCN(c2ncccn2)CC1 [CBK144527]	105
CN1CCC[C@H]1C(=O)N1CCN(c2ncccn2)CC1 [CBK144528]	93.4
O=C(CC1CCCCC1)N1CCN(c2ncccn2)CC1 [CBK144529]	102
CC(C)(N)CC(=O)N1CCN(c2ncccn2)CC1 [CBK144532]	91.3
Cc1ccc(CNC(=O)Cn2nnc(-c3ccc(CN4CC(C)OC(C)C4)cc3)n2)cc1 (stereo not drawn) [CBK144554C]	64.2
CSc1ccccc1CNC(=O)Cn1nnc(-c2ccc(CN3CCC(C)CC3)cc2)n1 [CBK144573C]	93.2
CC1CCN(Cc2ccc(-c3nnn(CC(=O)NCc4ccc(NS(C)(=O)=O)cc4)n3)cc2)CC1 [CBK144588C]	90.3
CCNC(=O)N1CC2(CCN(C/C=C/c3ccccc3)CC2)c2ccccc21 [CBK144596T]	97.6
CCNC(=O)N1CC2(CCN(CCOc3ccc(OC)cc3)CC2)c2ccccc21 [CBK144600T]	98.4
CC(C)C(=O)N1CC2(CCN(Cc3cc(=O)[nH]c(=O)[nH]3)CC2)c2ccccc21 [CBK144602T]	107
Cc1cc(NCCc2ccc(=O)[nH]c2)nc(-c2cc(F)c(F)cc2F)n1 [CBK144636C]	99.3
O=C(OCc1ccccc1)N1CCC(C2OCc3cc(-c4cccc5ncccc45)ccc3O2)CC1 (stereo not drawn) [CBK144644]	94.8
O=C(Nc1ccc2[nH]ccc2c1)c1c(F)cccc1F [CBK144711]	95.9
CS(=O)(=O)N1CCC(Oc2nccnc2OCc2ccc(Cl)c(Cl)c2)CC1 [CBK144910]	90.5
CSc1nnc(NS(=O)(=O)c2ccccc2C)s1 [CBK144918]	97.4
COCCSc1nnc(NS(=O)(=O)c2ccc(F)cc2)s1 [CBK144919]	87.1
CC(C)(C)OC(=O)N1CCN(Cc2ccn(Cc3ccc(S(C)(=O)=O)cc3)c2)CC1 [CBK144936]	119
CCCC1CCN(Cc2ccn(Cc3ccc(S(C)(=O)=O)cc3)c2)CC1 [CBK144937]	94.4
O=C(Nc1cccnc1)N1CCN(c2ccccc2)CC1 [CBK145043]	89.5

Compound	viability at 28.5 h, 10 µM [%]
CN(C)CCN(Cc1ccccc1)C(=O)Nc1cccnc1 [CBK145047]	95
CCN(Cc1ccncc1)C(=O)Nc1cccnc1 [CBK145053]	111
CCN(Cc1ccncc1)C(=O)NCc1cccnc1 [CBK145054]	94.6
CCN(Cc1ccncc1)C(=O)NCc1ccc2c(c1)OCO2 [CBK145056]	102
COc1ccc(CCOc2cnc(-c3ccccc3)c(N)n2)cc1 [CBK145065]	98.8
COc1cccc(COc2cnc(-c3ccccc3)c(N)n2)c1OC [CBK145066]	101
COc1ccccc1-c1ncc(OCc2ccccn2)nc1N [CBK145070]	109
COc1ccccc1-c1ncc(OC2CCN(C)C2)nc1N (stereo not drawn) [CBK145081]	92.4
COc1ccc(-c2ncc(Oc3cccc(NC(C)=O)c3)nc2N)c(OC)c1 [CBK145087]	113
COCOc1ccc(-c2ncc(OCc3ccc4c(c3)OCO4)nc2N)cc1 [CBK145101]	100
COCc1cccc(-c2ncc(OCc3ccccn3)nc2N)c1 [CBK145108]	93.9
Nc1nc(OCCc2cccs2)cnc1-c1ccc(OC(F)(F)F)cc1 [CBK145116]	92.7
Nc1nc(OCc2ccncc2)cnc1-c1ccc(OC(F)(F)F)cc1 [CBK145121]	99.8
Cc1ccc(-c2ncc(OCCN3CCCC3=O)nc2N)c(C)c1 [CBK145127]	99.3
Cc1ccc(-c2ncc(OC3CCN(C)CC3)nc2N)c(C)c1 [CBK145139]	97.5
Nc1nc(OCc2cccs2)cnc1-c1ccsc1 [CBK145161]	95.8
Nc1nc(OCCOc2ccccc2)cnc1-c1ccsc1 [CBK145163]	109
Cn1cc(-c2ncc(OCCc3cccs3)nc2N)cn1 [CBK145167]	87.8
Cn1cc(-c2ncc(OCCOc3ccccc3)nc2N)cn1 [CBK145171]	108
Nc1nc(OCc2ccccc2)cnc1-c1cccc(C(F)(F)F)c1 [CBK145179]	99.4
COc1cccc(Oc2cnc(-c3ccc(C(=O)N(C)C)cc3)c(N)n2)c1 [CBK145185]	95.5
CN(C)C(=O)c1ccc(-c2ncc(OCc3cccs3)nc2N)cc1 [CBK145187]	102
Nc1nc(OCCN2CCOCC2)cnc1-c1cc(Cl)cc(Cl)c1 [CBK145198]	99.8

Compound	viability at 28.5 h, 10 µM [%]
CCC(CC)C(=O)Nc1nc(OCCN2CCCC2=O)cnc1-c1ccc(Cl)cc1Cl [CBK145210]	92.6
COCOc1ccc(-c2ncc(OC)nc2NC(=O)COC)cc1 [CBK145216]	92.7
COc1cnc(-c2cnn(C)c2)c(NC(=O)c2cc(C)oc2C)n1 [CBK145218]	93.2
COc1cnc(/C=C\c2ccccc2)c(NC(=O)c2cc(C)oc2C)n1 [CBK145222]	95.1
COCOc1ccc(-c2ncc(OCCN3CCCC3=O)nc2NC(C)=O)cc1 [CBK145253]	104
COc1cnc(-c2ccccc2OC)c(NC(=O)Cc2ccccc2)n1 [CBK145260]	95.8
COc1ccccc1-c1ncc(OCC(F)(F)F)nc1NC(=O)C1CC1 [CBK145275]	86.4
COc1cnc(-c2ccsc2)c(NC(=O)c2cc(C)oc2C)n1 [CBK145294]	93.2
CC(C)CC(=O)Nc1nc(OCC(F)(F)F)cnc1-c1ccc(Cl)cc1Cl [CBK145356]	94.2
O=C(Nc1nc(OCC(F)(F)F)cnc1-c1ccc(Cl)cc1Cl)c1cc2ccccc2s1 [CBK145358]	87.4
COc1ccc(CC(=O)Nc2nc(OCC(F)(F)F)cnc2-c2ccc(Cl)cc2Cl)cc1 [CBK145359]	91
CC(=O)Nc1nc(OCCN2CCCC2=O)cnc1/C=C\c1ccccc1 [CBK145371]	84.9
COc1cnc(-c2cccc(C(=O)N(C)C)c2)c(NC(=O)c2ccccc2)n1 [CBK145385]	102
COc1cnc(-c2ccc(Cl)cc2Cl)c(NC(=O)Cc2ccccc2)n1 [CBK145398]	92.8
CC(=O)Nc1nc(OCCOc2ccccc2)cnc1-c1cnn(C)c1 [CBK145425]	92.6
COc1ccc(CC(=O)Nc2nc(OC)cnc2-c2ccoc2)cc1 [CBK145435]	92.8
CCCCN(C)c1c(CC)nc2ccc(C(=O)NCCc3ccccn3)cn12 [CBK145441]	98.4
CCCCN(C)c1c(CC)nc2ccc(C(=O)N3CCNC(=O)C3)cn12 [CBK145460]	87.9
CCc1nc2ccc(C(=O)NCCN3CCNC3=O)cn2c1N(CCN(C)C)CC1CC1 [CBK145469]	89.2
CCCCN(C=O)c1c(CC)nc2ccc(C(=O)Nc3ccc(Cl)c(Cl)c3)cn12 [CBK145470]	84.1
CCc1nc2ccc(C(=O)NCc3ccc4c(c3)OCO4)cn2c1N(CCN(C)C)CC1CC1 [CBK145472]	97.1
